Laboratory results as given in patent publication US20210284742A1, “METHODS OF TREATING OR PREVENTING MUCORMYCOSIS” (University of Maryland, Baltimore, priority 2018, published 2021).

How the values were obtained:
[1] = system: R. delemar; assay: Neutropenic mouse model of pulmonary mucormycosis, survival; format: in vivo, mice; settings: for protection from pulmonary mucormycosis (survival): 10 mg/kg for 5 consecutive days starting 4 h post infection; for protection from pulmonary mucormycosis, delayed administration: treatment delayed for 30 h post infection, administered alone
Experimental: Murine models of Mucormycosis. Male ICR mice (20-25 g from Envigo) were immunosuppresed by cyclophosphamide (200 mg/kg administered intraperotenually [i.p]) and cortisone acetate (500 mg/kg, adminstered subcutaneously) given on days −2, +3, and +9 relative to infection. […] To control for bacterial infection, immunosuppressed mice received 50 mg/L Baytrial (enrofloxacin: Bayer, Leverkusen, Germany) ad libitum on Day −3 thorough Day 0, after which Baytril was replaced with daily ceftazidime (5 mg/mouse) treatment adminstered subcutaneously through day+13 days post infection. Mice were infected with 2.5×10^5 spores of R. delemar 99-880 in 25 μL PBS given intratracheally as previously described (Luo G, Gebremariam T, Lee H, French S W, Wiederhold N P, Patterson T F, Filler S G, Ibrahim A S. 2013. Efficacy of liposomal amphotericin B and posaconazole in intratracheal models of murine mucormycosis. Antimicrobial agents and chemotherapy 57:3340-7). […] Placebo mice received DMA:PEG300. Survival of mice served as the primary endpoint with moribund mice humanely euthanized. To determine effect of treatment on tissue fungal burden mice were immunosuppressed and infected as above. Gefitinib treatment started 4 post infection and continued through Day +3. On Day +4, mice were sacrificed and lungs and brains, representing primary and secondary target organs (Luo G, Gebremariam T, Lee H, French S W, Wiederhold N P, Patterson T F, Filler S G, Ibrahim A S. 2013. Efficacy of liposomal amphotericin B and posaconazole in intratracheal models of murine mucormycosis. Antimicrobial agents and chemotherapy 57:3340-7), were collected and processed for tissue fungal burden by qPCR (Ibrahim A S, Bowman J C, Avanessian V, Brown K, Spellberg B, Edwards J E, Jr., Douglas C M. 2005. Caspofungin inhibits Rhizopus oryzae 1,3-beta-D-glucan synthase, lowers burden in brain measured by quantitative PCR, and improves survival at a low but not a high dose during murine disseminated zygomycosis. Antimicrobial agents and chemotherapy 49:721-7.) Values are expressed as Log10 spore equivalents per gram tissue.
Statistical Analyses. In vitro experiments were performed in triplicate on two or three separate days. Data were expressed as median±interquartile range. Treatment groups were compared to controls using the Wilcoxon rank-sum test and P values <0.05 were considered significant. For the murine studies, survival of mice was analyzed using the Log Rank test, whereas differences in tissue fungal burden were analyzed by the Wilcoxon Rank Sum test using Graph pad Prism 6. P values of <0.05 were considered significant.

[2] = system: R. delemar; assay: Tissue fungal burden of lungs and brains by qPCR in neutropenic mice; format: in vivo; settings: 10 mg/kg starting 4 h post infection through Day +3, organs collected Day +4, qPCR
Experimental: Murine models of Mucormycosis. Male ICR mice (20-25 g from Envigo) were immunosuppresed by cyclophosphamide (200 mg/kg administered intraperotenually [i.p]) and cortisone acetate (500 mg/kg, adminstered subcutaneously) given on days −2, +3, and +9 relative to infection. […] To control for bacterial infection, immunosuppressed mice received 50 mg/L Baytrial (enrofloxacin: Bayer, Leverkusen, Germany) ad libitum on Day −3 thorough Day 0, after which Baytril was replaced with daily ceftazidime (5 mg/mouse) treatment adminstered subcutaneously through day+13 days post infection. […] On Day +4, mice were sacrificed and lungs and brains, representing primary and secondary target organs (Luo G, Gebremariam T, Lee H, French S W, Wiederhold N P, Patterson T F, Filler S G, Ibrahim A S. 2013. Efficacy of liposomal amphotericin B and posaconazole in intratracheal models of murine mucormycosis. Antimicrobial agents and chemotherapy 57:3340-7), were collected and processed for tissue fungal burden by qPCR (Ibrahim A S, Bowman J C, Avanessian V, Brown K, Spellberg B, Edwards J E, Jr., Douglas C M. 2005. Caspofungin inhibits Rhizopus oryzae 1,3-beta-D-glucan synthase, lowers burden in brain measured by quantitative PCR, and improves survival at a low but not a high dose during murine disseminated zygomycosis. […]
Statistical Analyses. […] Data were expressed as median±interquartile range. […]

[3] = system: A549 cells infected with R. oryzae; assay: R. oryzae-induced damage of A549 cells (LDH assay); format: cell-based, human; settings: 25 μM Mifepristone overnight and/or 25 μM Gefitinib 1 h, 24 h infection (FIG. 14)
Experimental: R. delemar-induced A549 cell damage was quantified using the Pierce LDH assay, with slight modifications to the manufacturer's protocol. Briefly, A549 cells were grown in 96-well tissue culture plates for 18 to 24 h. […] For controls, host cells were incubated with the appropriate amount of diluent used to reconstitute the in parallel. After 24 h of incubation at 37° C., 50 μl of the cell culture supernatant was collected from uninfected, infected, and fungus-only control wells and transferred to a 96-well plate to assay for LDH activity. Lysis buffer was added to all infected wells, and the mixture was incubated for 45 min at 37° C. After lysis, 50 μl of cell culture supernatant was transferred to a 96-well plate and used for the LDH assay kit per the protocol. LDH release was calculated as follows: % cytotoxicity=[(experimental release−fungal cell spontaneous control−host cell spontaneous control)/(host cell maximum control−fungal cell maximum control−host cell spontaneous control)]×100. LDH is a cytosolic enzyme but will be released into the cell culture medium upon cell membrane damage. The amount of extracellular LDH is proportional to the amount of cell damage.

[4] = neutropenic mice infected intratracheally, 10 mg/kg i.p. for 5 consecutive days starting 4 h post infection

SMILES: COc1cc2ncnc(Nc3ccc(F)c(Cl)c3)c2cc1OCCCN1CCOCC1 [Gefitinib]
- protection from pulmonary mucormycosis (survival) [1]: protects mice from pulmonary mucormycosis
- protection from pulmonary mucormycosis (survival) ([1]; listed as gefitinib): protected
- 18-day survival ([1]; delayed treatment beginning 30 h post infection for 6 consecutive days, 10 mg/kg gefitinib, 20 mg/kg posaconazole or both): ~30%
- median survival time [1, 4]: > 21 days
- mice survived the infection by Day 21 [1, 4]: 55%
- protection from pulmonary mucormycosis, delayed administration [1]: protects mice from pulmonary mucormycosis
- protection from pulmonary mucormycosis, delayed administration ([1]; listed as gefitinib): protected mice from pulmonary mucormycosis
- reduction in fungal burden in organs (lungs and brains) compared to placebo-treated mice [2]: ~1 log
- R. oryzae-induced damage [3]: significantly decreased
